Measurements as given in patent US10131659B2, “Iodonium analogs as inhibitors of NADPH oxidases and other flavin dehydrogenases; formulations thereof; and uses thereof” (priority 2014, dated 2018).

Experiments:
[1] = tested on: HT-29 human colon cancer cells; assay: Growth inhibition of HT-29 cells by MTT assay; assay type: cell-based; settings: Homo sapiens, HT-29; 48 hr drug exposure; read-out: IC50, HT-29 human colon cancer cell growth
Procedure: The compounds were analyzed for growth inhibition of HT-29 human colon cancer cells by MTT assay: 48 hr, drug exposures over several orders of concentration. The MTT assay was performed as described in Wu et al J. Immunology 190: 1859-1872, 2013.

[2] = tested on: ROS production in HT-29 human colon cancer cells; assay: ROS production in HT-29 cells (chemiluminescence / DCF analytical cytometry); assay type: cell-based; settings: treatment for 24 hr with 10 nM
[3] = tested on: HT-29 human colon cancer cells; assay: Clonogenic assay, HT-29 cells; assay type: cell-based; settings: for IC50: Homo sapiens
Procedure: Several iodonium analog compounds were analyzed for inhibition of HT-29 growth using a clonogenic assay performed as described in Doroshow et al Biochem. Biophys. Res. Commun. 135: 330-335, 1986.

[4] = tested on: HT-29 human colon cancer cells; settings: Free Rad. Biol. Med. 57: 162-165, 2013; cited from earlier work

For c1ccc2c(c1)[I+]c1ccccc1-2 [Compound 13, Diphenyleneiodonium chloride, reference compound], the IC50 [1] was 300 nM, the “ROS production in HT-29 cells” value [2] was “significantly decreased” and the “cytotoxic or cytostatic character” value [3] was “cytostatic”. The “exposure required to inhibit growth / cell reproduction” value [3] was “requires prolonged exposure”, the IC50 ([3]; HT-29, 240 h, 10 days exposure, read-out: IC50 clonogenic survival, 10 days drug exposure) was about 10 nM and the IC50 ([3]; HT-29, read-out: IC50 (±SE) clonogenic survival, 2 hrs drug exposure, 2 hrs exposure) was 9300 ± 3900 nM. The IC50 ([3]; HT-29, read-out: IC50 (±SE) clonogenic survival, 6 hrs drug exposure, 6 hrs exposure) was 799 ± 180 nM and the “effect on cell cycle progression” value [4] was “only G1 block”.
